From patent US12384756B2, “Piperidinedione derivatives” (INNOCURE THERAPEUTICS, INC., priority 2021, dated 2025)

Columns and labels:
CRBN = molecular target: T1, CRBN (Homo sapiens, UniProt Q96SW2); test: NanoBRET intracellular E3 ligase assay, CRBN binding affinity; conditions: BRET assay, compared with pomalidomide
T1 construct: host or cells: HEK 293T
Method: The binding affinity of the synthesized compounds to CRBN E3 ligase was measured using PROMEGA NANOBRET™ Intracellular E3 ligase Assay, CRBN [cat #N2910]. Bioluminescence resonance energy transfer (BRET) assay is a method that the transfer of luminescence energy of POI into a bound fluorescent tracer is measured. […] Thus, the affinity of a compound to the POI can be measure.
9.0 mg/ml of DDB1 expression vector and 1.0 mg/ml of NanoLuc-CRBN fusion vector were transfected using LIPOFECTAMINE™ 3000.
Then, the cell lines were treated with a compound prepared at various concentrations, and then mixed for 15 seconds. Then, cell walls were broken by using digitonin, and the mixture was reacted for 25 minutes. Then, the mixture was treated with luciferase substrate. The luminescence intensity and the fluorescence intensity were measure at donor emission wavelength (450 nm) and at acceptor emission wavelength (610 nm), and then BRET ratio was calculated and normalized. BRET ratio was calculated by the following formula: BRET ratio: Acceptor/Donor×1000 [4] CRBN Binding Affinity of the Compound

SHP2 = molecular target: T2, SHP2 (Homo sapiens, UniProt Q06124); test: SHP2 protein degradation by western blot in MV-4-11 cells; assay type: cell-based; conditions: MV-4-11, 24 hours; for DC50: 50% inhibition of protein expression, read-out: DC50 of SHP2-targeted PROTAC
T2 construct: SHP2 expressed in cells; endogenous in cells; host or cells: MV-4-11
T2 sequence (Q06124 1-593): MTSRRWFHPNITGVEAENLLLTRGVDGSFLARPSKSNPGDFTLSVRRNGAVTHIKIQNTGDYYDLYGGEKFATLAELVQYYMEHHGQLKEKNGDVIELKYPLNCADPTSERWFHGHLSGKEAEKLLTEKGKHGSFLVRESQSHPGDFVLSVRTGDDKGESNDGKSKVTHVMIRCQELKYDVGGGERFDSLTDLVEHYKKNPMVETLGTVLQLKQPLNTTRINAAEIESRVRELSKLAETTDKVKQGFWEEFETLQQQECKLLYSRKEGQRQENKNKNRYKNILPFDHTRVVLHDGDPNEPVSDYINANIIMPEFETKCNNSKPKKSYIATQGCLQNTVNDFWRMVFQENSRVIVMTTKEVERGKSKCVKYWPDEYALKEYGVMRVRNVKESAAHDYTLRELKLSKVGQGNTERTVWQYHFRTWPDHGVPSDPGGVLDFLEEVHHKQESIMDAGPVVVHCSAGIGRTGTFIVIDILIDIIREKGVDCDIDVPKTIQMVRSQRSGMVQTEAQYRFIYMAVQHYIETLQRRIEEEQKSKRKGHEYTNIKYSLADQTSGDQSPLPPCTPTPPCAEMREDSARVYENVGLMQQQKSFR
Method: (§1) Human hematologic cancer cell line [MV-4-11] was cultured in IMDM medium with 10% fetal bovine serum, penicillin [100 U/ml] and streptomycin [[…]]. The synthesized compound was prepared with a stock solution of 10 mM or 50 mM dissolved in DMSO [dimethyl sulfoxide], and it was sequentially diluted to treat the cell line.
To observe the PROTAC's degradation ability to SHP2 expressed in cells, the cells were aliquoted into a 12 well plate at a concentrations of 3×10^5 cells/well, and then the sample was treated for 24 hours. In order to conduct western blotting assay to confirm protein expression, the cell treated with the compound was treated for 30 minutes with 70 μL of RIPA buffer with wherein protease inhibitor is added. Then, cell lysate was collected on ice using a scraper and centrifuged at 4° C. 15,000 rpm for 30 minutes to obtain a supernatant containing protein. Then, SDS-PAGE is conducted for 10 μg of protein per sample, and the protein is transferred to a membrane. The protein is reacted with antibodies of anti-SHP2 and anti-GAPDH at 4° C. for 16 hours, and then, reacted with the secondary antibodies at room temperature for 1 hour. The protein expression is confirmed using SuperSignal™ West Pico PLUS chemiluminescence substrate and image analyzer. The protein expression inhibition was normalized based on the expression value of GAPDH. The amount of protein expression in each sample was measured based on the sample treated with 0.1% DMSO vehicle which was set to 100%. The amount of protein expression was quantified using the Image J program. The change in the amount of protein expression due to the treatment of compound (DC50: the concentration of compounds where the 50% inhibition of protein expression is achieved) was calculated using GraphicPad Prism 8.0 software.

[1] = test system: Human hematologic cancer cell line [MV-4-11]; test: Anti-proliferative activity (WST-8) of SHP2 targeted PROTAC in MV-4-11; assay type: cell-based; conditions: MV-4-11, 72 hours; for IC50: Homo sapiens, MV4-11, WST-8, read-out: IC50 of SHP2-targeted PROTAC (cell proliferation)
Method: as §1
The cell survival was calculated by steps of adding in each well […] of water soluble tetrazolium salt (WST-8) which produces formazon in response to dehydrogenase present in the electron transport chain in mitochondria, incubating for 3 hours, measuring the absorbance at 450 nm, and calculating […] PRISM 8.0 software.

T1 sequence (Q96SW2 whole entry): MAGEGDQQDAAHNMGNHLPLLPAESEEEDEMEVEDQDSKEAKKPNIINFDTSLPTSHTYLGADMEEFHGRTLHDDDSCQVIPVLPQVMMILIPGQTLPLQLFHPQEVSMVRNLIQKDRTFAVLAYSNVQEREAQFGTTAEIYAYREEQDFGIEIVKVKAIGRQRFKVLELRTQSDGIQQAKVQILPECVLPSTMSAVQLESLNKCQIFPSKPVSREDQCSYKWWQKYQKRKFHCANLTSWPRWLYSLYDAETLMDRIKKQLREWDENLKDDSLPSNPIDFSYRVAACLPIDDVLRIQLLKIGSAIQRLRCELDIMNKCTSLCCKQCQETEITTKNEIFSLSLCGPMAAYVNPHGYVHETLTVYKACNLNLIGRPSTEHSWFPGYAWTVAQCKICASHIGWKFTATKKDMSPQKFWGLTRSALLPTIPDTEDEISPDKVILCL
T1 sequence (Q16531 whole entry partner): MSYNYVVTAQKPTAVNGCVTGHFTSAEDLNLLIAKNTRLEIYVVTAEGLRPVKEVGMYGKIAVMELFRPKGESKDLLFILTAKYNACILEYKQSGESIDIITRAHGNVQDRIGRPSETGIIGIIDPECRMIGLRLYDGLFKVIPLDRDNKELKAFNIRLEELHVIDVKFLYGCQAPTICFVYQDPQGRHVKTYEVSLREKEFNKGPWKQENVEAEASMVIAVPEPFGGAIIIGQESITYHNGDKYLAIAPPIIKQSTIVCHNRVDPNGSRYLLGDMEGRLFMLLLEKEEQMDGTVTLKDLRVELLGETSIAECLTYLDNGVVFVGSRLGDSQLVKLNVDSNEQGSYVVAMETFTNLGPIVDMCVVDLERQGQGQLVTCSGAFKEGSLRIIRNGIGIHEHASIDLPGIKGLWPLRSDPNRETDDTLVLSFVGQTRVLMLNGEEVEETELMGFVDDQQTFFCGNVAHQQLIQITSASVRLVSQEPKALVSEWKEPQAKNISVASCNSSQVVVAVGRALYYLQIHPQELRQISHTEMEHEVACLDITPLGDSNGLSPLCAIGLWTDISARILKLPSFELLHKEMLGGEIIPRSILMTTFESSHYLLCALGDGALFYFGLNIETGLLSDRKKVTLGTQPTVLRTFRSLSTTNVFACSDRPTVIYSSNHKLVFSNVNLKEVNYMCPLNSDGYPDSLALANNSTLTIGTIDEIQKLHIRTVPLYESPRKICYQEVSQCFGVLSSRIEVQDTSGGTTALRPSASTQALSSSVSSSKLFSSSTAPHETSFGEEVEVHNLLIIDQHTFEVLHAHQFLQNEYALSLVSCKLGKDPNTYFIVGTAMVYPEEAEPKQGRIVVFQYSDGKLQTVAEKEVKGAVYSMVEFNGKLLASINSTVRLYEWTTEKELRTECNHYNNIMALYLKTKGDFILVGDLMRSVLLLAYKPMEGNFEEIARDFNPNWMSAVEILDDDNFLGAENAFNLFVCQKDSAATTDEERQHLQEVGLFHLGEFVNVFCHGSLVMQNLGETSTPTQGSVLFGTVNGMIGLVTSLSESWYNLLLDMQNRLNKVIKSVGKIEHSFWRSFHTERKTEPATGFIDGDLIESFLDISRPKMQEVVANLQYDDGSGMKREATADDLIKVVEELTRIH

| SMILES | CRBN binding affinity (in words) (CRBN) | SHP2 degradation (in words) (SHP2) | DC50 (SHP2) | IC50 [1] | inhibition of cancer cell proliferation (in words) [1] |
| --- | --- | --- | --- | --- | --- |
| COc1cccc2cnn(C3CCC(=O)NC3=O)c(=O)c12 (stereo not shown) [Ex. 11, 3-(8-methoxy-1-oxophthalazin-2(1H)-yl)piperidine-2,6-dione] | excellent |  |  |  |  |
| Cc1nn(C2CCC(=O)NC2=O)c(=O)c2c(N)cccc12 (stereo not shown) [Ex. 8, 3-(8-amino-4-methyl-1-oxophthalazin-2(1H)-yl)piperidine-2,6-dione] | excellent |  |  |  |  |
| C[C@@H]1OCC2(CCN(c3cnc(Sc4cccc(NC(=O)CCC(=O)N5CCN(C(=O)CCOCCOCCOCCOCCOCCOCCNc6cccc7cnn(C8CCC(=O)NC8=O)c(=O)c67)CC5)c4Cl)c(N)n3)CC2)[C@@H]1N (stereo partly drawn) [Example 79, N-(3-((3-amino-5-((3S,4S)-4-amino-3-methyl-2-oxa-8-azaspiro[4.5]decan-8-yl)pyrazin-2-yl)thio)-2-chlorophenyl)-4-(4-(1-((3-(2,6-dioxopiperidin-3-yl)-4-oxo-3,4-dihydrophthalazin-5-yl)amino)-3,6,9,12,15,18-hexaoxahenicosane-21-oyl)piperazin-1-yl)-4-oxobutanamide] |  | effectively degraded | 23.6 nM | 337 nM | inhibited effectively |
| C[C@@H]1OCC2(CCN(c3cnc(Sc4cccc(NC(=O)CCC(=O)N5CCN(C(=O)CCOCCOCCOCCOCCOCCNc6cccc7cnn(C8CCC(=O)NC8=O)c(=O)c67)CC5)c4Cl)c(N)n3)CC2)[C@@H]1N (stereo partly drawn) [Example 78, N-(3-((3-amino-5-((3S,4S)-4-amino-3-methyl-2-oxa-8-azaspiro[4.5]decan-8-yl)pyrazin-2-yl)thio)-2-chlorophenyl)-4-(4-(1-((3-(2,6-dioxopiperidin-3-yl)-4-oxo-3,4-dihydrophthalazin-5-yl)amino)-3,6,9,12,15-pentaoxaoctadecan-18-oyl)piperazin-1-yl)-4-oxobutanamide] |  | effectively degraded | 24.1 nM | 422 nM | inhibited effectively |
| Cc1nn(C2CCC(=O)NC2=O)c(=O)c2c(F)cccc12 (stereo not shown) [Ex. 7, 3-(8-fluoro-4-methyl-1-oxophthalazin-2(1H)-yl)piperidine-2,6-dione] | excellent |  |  |  |  |
| C[C@@H]1OCC2(CCN(c3cnc(Sc4cccc(NC(=O)CCC(=O)NCCCOCCOCCOCCCNc5ccc6c(=O)n(C7CCC(=O)NC7=O)ncc6c5)c4Cl)c(N)n3)CC2)[C@@H]1N (stereo partly drawn) [Example 73, N1-(3-((3-amino-5-((3S,4S)-4-amino-3-methyl-2-oxa-8-azaspiro[4.5]decan-8-yl)pyrazin-2-yl)thio)-2-chlorophenyl)-N4-(3-(2-(2-(3-((2-(2,6-dioxopiperidin-3-yl)-1-oxo-1,2-dihydrophthalazin-6-yl)amino)propoxy)ethoxy)ethoxy)propyl)succinamide] |  | effectively degraded | 29.9 nM | 507 nM | inhibited effectively |
| C[C@@H]1OCC2(CCN(c3cnc(Sc4cccc(NC(=O)CCC(=O)N5CCN(C(=O)CCOCCOCCOCCOCCNc6cccc7cnn(C8CCC(=O)NC8=O)c(=O)c67)CC5)c4Cl)c(N)n3)CC2)[C@@H]1N (stereo partly drawn) [Example 77, N-(3-((3-amino-5-((3S,4S)-4-amino-3-methyl-2-oxa-8-azaspiro[4.5]decan-8-yl)pyrazin-2-yl)thio)-2-chlorophenyl)-4-(4-(1-((3-(2,6-dioxopiperidin-3-yl)-4-oxo-3,4-dihydrophthalazin-5-yl)amino)-3,6,9,12-tetraoxapentadecan-15-oyl)piperazin-1-yl)-4-oxobutanamide] |  | effectively degraded | 70.2 nM | 685 nM | inhibited effectively |
